Measured values as given in US5977119A, “Trisubstituted thioxanthines” (Euro-Celtique, S.A., priority 1997, dated 1999).

Key:
[1] = test system: bronchial and coronary dilation; details: in words; cited from earlier work
[2] = test system: Type IV PDE isolated from bovine tracheal smooth muscle (PDE IV); test: Type IV PDE activity (hydrolysis of [^3 H]-cyclic AMP); format: biochemical; details: cyclic AMP 0.2 mM, 2.5% dimethyl sulfoxide, * = disubstituted analog
Text: In addition, the PDE IV inhibitory compounds of the present invention may be examined for their PDE IV inhibitory effects via the techniques set forth in the following examples, wherein the ability of the compounds to inhibit PDE IV isolated from bovine tracheal smooth muscle is set forth.
The Type IV PDE is isolated from bovine tracheal smooth muscle using a procedure similar to that previously described by Silver, P. J. et al., Eur. J. Pharmacol. 150:85,1988.(1). Briefly, smooth muscle from bovine trachea is minced and homogenized using a polytron in 10 volumes of an extraction buffer containing 10 mM Tris-acetate (pH 7.5), 2 mM magnesium chloride, 1 mM dithiothreitol and 2,000 units/ml of aprotinin. This and all subsequent procedures are performed at 0-4° C. The homogenate is sonicated and then centrifuged at 48,000×g for 30 minutes. The resulting supernatant is applied to a DEAE Trisacryl M column previously equilibrated with sodium acetate and dithiothreitol. After applications of the sample, the column is washed with sodium acetate/ dithiothreitol, after which the different forms of PDE are eluted from the column using a linear Tris-HCl/NaCl gradient. Fractions containing Type IV PDE are collected, dialyzed and concentrated to 14% of the original volume. The concentrated fractions are diluted to 50% with ethylene glycol and stored at -20° C.
Enzyme activity is assessed by measuring the hydrolysis of [^3 H]-cyclic AMP, as described by Thompson, W. J. et al., Adv. Cyclic Nucleotide Res. 10:69, 1979. The cyclic AMP concentration used in this assay is 0.2 mM, which approximates the Km value. Protein concentration is adjusted to ensure that no more than 15% of the available substrate is hydrolyzed during the incubation period.
All test compounds are dissolved in dimethyl sulfoxide (final concentration of 2.5%). This concentration of dimethyl sulfoxide inhibits enzyme activity by approximately 10%.

[3] = in words; cited from earlier work
[4] = test system: PDE IV; details: in words, background; cited from earlier work
[5] = test system: PDE III; details: in words, background; cited from earlier work
[6] = test system: neutrophils and eosinophils; details: in-vitro, in words; cited from earlier work
[7] = test system: lymphocytes; details: in-vitro, in words; cited from earlier work
[8] = test system: mast cells, basophils, monocytes and eosinophils; details: in-vitro, in words; cited from earlier work

CCc1nc2c([nH]1)c(=S)n(C)c(=O)n2C [1,3-dimethyl-8-ethyl-6-thioxanthine]
bronchial and coronary dilator activity [1]: having bronchial and coronary dilator activity

CCn1c(=O)[nH]c(=S)c2[nH]c(C(C)C)nc21 [3-ethyl-8-isopropyl-6-thioxanthine]
IC50 [2]: 4.6 µM

CCC(C)Cn1c(=O)n(CC)c(=S)c2[nH]c(C3CC3)nc21 (stereo not shown) [8-Cyclopropyl-1-ethyl-3-(2-methyl-butyl)-6-thioxanthine]
IC50 [2]: 1.18 µM

CCn1c(=S)c2[nH]c(C(C)C)nc2n(CC)c1=O [1,3-diethyl-8-isopropyl-6-thioxanthine, 1,3-Diethyl-8-isopropyl-6-thioxanthine]
IC50 [2]: 1.2 µM

CCCn1c(=O)[nH]c(=S)c2[nH]c(C(C)C)nc21 [8-isopropyl-3-propyl-6-thioxanthine]
IC50 [2]: 3.3 µM

CCC(C)Cn1c(=O)[nH]c(=S)c2[nH]c(C3CC3)nc21 (stereo not shown) [8-cyclopropyl-3-(2-methyl-butyl)-6-thioxanthine]
IC50 [2]: 3.83 µM

CCCn1c(=O)[nH]c(=S)c2[nH]c(CC)nc21 [3-propyl-8-ethyl-6-thioxanthine]
IC50 [2]: 18.4 µM

Cn1c(=O)c2[nH]cnc2n(C)c1=O [Theophylline]
therapeutic index [3]: narrow therapeutic index
PDE IV inhibition [4]: inhibits both PDE III and PDE IV
PDE III inhibition [5]: inhibits both PDE III and PDE IV

COc1ccc(C2CNC(=O)C2)cc1OC1CCCC1 (stereo not shown) [Rolipram]
inhibition of respiratory burst, chemotaxis and degranulation [6]: shown to inhibit
inhibition of mitogen-dependent growth and differentiation [7]: shown to inhibit
PDE IV inhibition [4]: selectively inhibit the PDE IV enzyme
inhibition of mediator synthesis/release [8]: shown to inhibit

Cc1nc2c([nH]1)c(=S)n(C)c(=O)n2C [1,3,8-trimethyl-6-thioxanthine]
bronchial and coronary dilator activity [1]: having bronchial and coronary dilator activity

CCCn1c(=S)c2[nH]c(C(C)C)nc2n(CCC)c1=O [8-isopropyl-1,3-dipropyl-6-thioxanthine, 1,3-Dipropyl-8-isopropyl-6-thioxanthine]
IC50 [2]: 1.67 µM

CCCCOc1cc(CC2CNC(=O)N2)ccc1OC (stereo not shown) [Ro-201724]
inhibition of respiratory burst, chemotaxis and degranulation [6]: shown to inhibit
inhibition of mitogen-dependent growth and differentiation [7]: shown to inhibit
inhibition of mediator synthesis/release [8]: shown to inhibit

CCCn1c(=O)[nH]c(=S)c2[nH]c(C3CC3)nc21 [8-cyclopropyl-3-propyl-6-thioxanthine]
IC50 [2]: 4.47 µM

CCn1c(=O)n(C)c(=S)c2[nH]c(C(C)C)nc21 [3-ethyl-1-methyl-8-isopropyl-6-thioxanthine]
IC50 [2]: 1 µM

CCCn1c(=S)c2[nH]c(C3CC3)nc2n(CCC)c1=O [8-Cyclopropyl-1,3-dipropyl-6-thioxanthine]
IC50 [2]: 2.97 µM
